From EP4721753A1, “PHARMACEUTICAL COMPOSITION FOR PREVENTING OR TREATING CORONAVIRUS INFECTIOUS DISEASES COMPRISING CELL-PERMEABLE PEPTIDE-NUCLEIC ACID OLIGOMER AS ACTIVE INGREDIENT” (GiftedMS Co., Ltd., priority 2023, dated 2024)
Values joined by “and” are separate entries in the source; they are usually repeats but may differ in a detail not shown here. Equal entries are not always repeated. Where two headings read alike, the source gives them in different places.

Legend:
Assay type in all cases: cell-based
HCoV-OC43 = assay: qRT-PCR evaluation of antiviral efficacy (viral RNA level in culture supernatant), HCT8 cells infected with HCoV-OC43; conditions: 1 µM PNA oligomer; HCT8 cells infected with HCoV-OC43 at 500 TCID50; viral RNA from cell supernatant on Day 3 after infection
Experimental: In order to analyze the level of viral RNA in viral particles present in a virus culture solution to determine how well the constructed PNA oligomer-based drugs inhibit viral genetic replication, qRT-PCR was performed.
Specifically, HCT8 cells cultured in 6-well plates one day before for drug screening were infected with HCoV-OC43 at a dose of 500 TCID50 using a serum-free RPMI medium. At the same time as infection, the cells were also treated with 1 µM of PNA oligomer, and after 30 minutes, the cells were washed twice with serum-free RPMI, and then the medium was replaced with an RPMI-Complete medium (containing 10% FBS and 1% penicillin/streptomycin) and the cells were treated with 1 µM of PNA oligomer. On Day 3 after infection, viral RNA was extracted from 140 µL of the cell supernatant using a QIAamp viral RNA mini kit manufactured by Qiagen. Virus extraction was performed according to the kit manual. The viral titer of the extracted viral RNA was measured by real-time PCR using a One step TB green kit manufactured by Takara. The primers used are as follows. HCoV-OC43 primer; Nucleoprotein (NP) gene (5'-[…]-3', 5'-[…]-3'). Real-time PCR conditions are as follows. Temperature Stage 1: Reverse transcription 42°C 5 min, 95°C 10 sec, 1 Cycle. Stage 2: PCR reaction 95°C 5 sec, 60°C 34 sec, 35 Cycles. Stage 3: melting curve analysis 95°C 15 sec, 65°C 60 sec, 95°C 15 sec.

SARS-CoV-2 virus = conditions: Vero cells, 1000 to 0.49 nM, 2-fold dilution, viral RNA after 24 hours, three repeated experiments
SARS-CoV-2 = conditions: 1000 nM; Vero cells pre-incubated 2 hours; viral RNA 24 hours after infection

`CC(C)(C)[C@H](NC(=O)C(F)(F)F)C(=O)N1C[C@H]2[C@@H]([C@H]1C(=O)N[C@H](C#N)C[C@@H]1CCNC1=O)C2(C)C` [PF07321332, Nirmatrelvir] was tested, and the Inhibition% (HCoV-OC43) was 97.98%.
Paxlovid was tested, and the IC50 (SARS-CoV-2 virus) was 317 nM and 328 nM and 464 nM, the IC50 (SARS-CoV-2 virus; listed as Paxlovid (P.C)-1) was 317 nM and the IC50 (SARS-CoV-2 virus; listed as Paxlovid (P.C)-2) was 328 nM. For the same compound, the IC50 (SARS-CoV-2 virus; listed as Paxlovid (P.C)-3) was 464 nM and the Inhibition% (SARS-CoV-2) was 96.03%.
